Data set [1] has as its system standard normal pooled plasma. The experiment in a line: CloFAL assay, altered fibrinolysis studies in treated standard normal pooled plasma. The data set is classed as biochemical, human. The note with it: TAFIa inhibition by PTCI, final plasma concentration 50 μg/mL.
Description: Frozen plasma aliquots were thawed in a 37° C. water bath for three minutes. […] Plasma samples (fresh or freeze-thawed) were maintained for up to 30 minutes in an ice-water bath until time of assay. […]
The kinetic absorbance data was exported to Microsoft Excel and absorbance measurements at each time point were averaged for the triplicate runs of each specimen. Using the averaged absorbance for the specimen, the maximum amplitude of rise in absorbance was determined (MA=maximum absorbance minus baseline absorbance, where baseline absorbance was obtained by averaging the third through eighth kinetic readings). […]
Data set [2] concerns standard normal pooled plasma. Nature of the data set: CloFAL assay, heparin studies and heparinase reversal. In kind it is biochemical, human. From the text: The assay described here was modified from those of He et al. (1999) and Smith et al. (2003). As compared to that by Smith et al., which evaluates only fibrinolysis, the CloFAL assay permits assessment of coagulability as well. Furthermore, when compared to the global assay of He et al., the CloFAL assay permits testing with a single reagent to evaluate both coagulation and fibrinolysis, rather than requiring (as does that of He et al.) the preparation of two distinct reagents for separate evaluation of the plasma sample. […] Frozen plasma aliquots were thawed in a 37° C. water bath for three minutes. […]
For each patient sample to be analyzed, 75 μL of freeze-thawed or fresh plasma was dispensed into each of three wells in a round-bottom, 96-well, Nunc assay plate (Fisher Scientific, Santa Clara, Calif.), and then pre-warmed at 37° C. for three minutes. […] The plate was then immediately placed in an eight-channel microplate spectrophotometer (PowerWave HT, Bio-Tek Instruments, Winooski, Vt.) for dual kinetic absorbance measurements at 405 nm and 630 nm at 45-second intervals for 3 hours, following an initial five-second mixing step prior to the first reading. The spectrophotometer interfaced with a computer such that all its operations, including continuous analysis of delta-absorbance (405 nm minus 630 nm) data using KC4™ PC software, may be automated. […]

Consider “PTCI: potato tuber carboxypeptidase inhibitor (Sigma-Aldrich), blocks TAFI activation to enhance fibrinolysis (QQHADPICNKPCKTHDDCSGAWFCQACWNSARTCGPYVG; UniProt P01075 1-39, looked up)”, for which, in data set [1], the “FI (fibrinolytic index)” value was “increased” and the “duration of the first phase of decline in turbidity in the CloFAL curve” value was “prolonged”.

For the substance heparin, the “rise in absorbance of the CloFAL curve” value in data set [2] (heparin at 2 U/mL in standard normal pooled plasma) is “greatly prevented”; in data set [2] (heparin concentrations of as little as 0.1 U/mL) it was “prolongation and attenuation”.

These data come from patent US20080268483A1, “Methods for a Global Assay of Coagulation and Fibrinolysis” (The Regents of the University of Colorado, priority 2004, published 2008).
